Assay results from US20080058330A1, “Compounds and Combinations Thereof for Inhibiting Beta-Amyloid Production and Methods of Use Thereof” (Roskamp Research LLC, priority 2006, published 2008).

Legend:
[1] = system: 7W WT APP751 CHO cells; test: Screening of dihydropyridine compounds of Table 2, Aβ1-40 and Aβ1-42 ELISA (Example 5); format: cell-based, Chinese hamster; conditions: for concentration of Aβ1-40 compared to control: 3 and 10 μM, 24 hours (FIG. 24); for concentration of Aβ1-40 or Aβ1-42 compared to control: 3, 10, 30 and 100 μM, 24 hours (FIGS. 22A, 22B, 23A, 23B)
Description: (§1) Chinese hamster ovary (CHO) cells, stably transfected with human APP751 (7W WT APP751 CHO cells) were used. See, e.g., Koo and Squazzo, J. Biol. Chem., Vol. 269, Issue 26, 17386-17389, July, 1994. The cells were maintained in DMEM medium supplemented with 10% fetal bovine serum and IX mixture of penicillin/streptomycin/fungizone/glutamine mixture (Cambrex, Md.) geneticin as selecting agent in 75 cm^2 cell culture flasks.
(§2) The 7W WT APP751 CHO cells were plated in 24-well cell culture plates in quadruplicate, containing 1 ml of culture medium, and treated with various calcium channel blocker compounds for 4 hours, 24 hours or 48 hours at 37° C. and 5% CO2. All test compounds were diluted in dimethyl sulfoxide (DMSO) before being added to the cultured confluent 7W WT APP751 CHO cells. The culture medium was collected and diluted 5-fold for the 4 hours assay and 50-fold for the 24 hour assay before being assayed by ELISAs for Aβ1-40 and Aβ1-42, respectively. Concentrations of Aβ1-40 and Aβ1-42, expressed in pg/ml, were determined using commercially available ELISAs (Biosource, Calif.) in a colorimetric assay using labeled antibodies detected spectrophotometrically.
The screening of dihydropyridine compounds was conducted according to the procedure described in Example 1. Each compound was added to confluent cells to a final concentration of 3, 10, 30 or 100 μM and tested. Each of these compounds was added to confluent cells to a final concentration of 3 μM (noted as “C” in FIG. 24) or 10 μM (noted as “B” in FIG. 24).

[2] = system: Tg APPsw mice; conditions: Tg APPsw mice given the NSAID; correlating with decreased microglial activation; cited from earlier work
[3] = system: 7W WT APP751 CHO cells; test: Measurement of Aβ1-40 and Aβ1-42 by ELISA after treatment with calcium channel blockers (Example 1); format: cell-based, Chinese hamster
Description: as §1
as §2, with “All test compounds were diluted in dimethyl sulfoxide (DMSO) before being added to the cultured confluent 7W WT APP751 CHO cells.” left out

Compound | concentration of Aβ1-40 compared to control [1] | concentration of Aβ1-40 or Aβ1-42 compared to control [1] | further results
CC1=C(C(=O)OC(C)(C)C)C(c2cccc(F)c2F)C(C(=O)OC(C)(C)C)=C(C)N1 [Example 3-23] | decreased |  | 
CC1=C(C(=O)OC(C)(C)C)C(c2ccccc2Br)C(C(=O)OC(C)(C)C)=C(C)N1 [Example 2-32, Di-tert-butyl 4-(2-bromophenyl)-1,4-dihydro-2,6-dimethylpyridine-3,5-dicarboxylate] |  | decreased | 
CCOC(=O)C1=C(C)NC(C)=C(C(=O)OCC)C1c1cccc(F)c1F [Example 3-22] | decreased |  | 
CCOC(=O)C1=C(C)NC(C)=C(C(=O)OCC)C1c1ccccc1F [Example 2-27, Diethyl 4-(2-fluorophenyl)-1,4-dihydro-2,6-dimethylpyridine-3,5-dicarboxylate] |  | decreased | melting point: 151 to 152.5 °C
CC1=C(C(=O)OC(C)(C)C)C(c2cc(Br)ccc2F)C(C(=O)OC(C)(C)C)=C(C)N1 [Example 3-42] | decreased |  | 
COCCOC(=O)C1=C(C)NC(C)=C(C(=O)OCCOC)C1c1cccc(Br)c1 [Example 3-37] | decreased |  | 
CC1=C(C(=O)OC(C)(C)C)C(c2ccccc2F)C(C(=O)OC(C)(C)C)=C(C)N1 [Example 2-28, Di-tert-butyl 4-(2-fluorophenyl)-1,4-dihydro-2,6-dimethylpyridine-3,5-dicarboxylate] |  | decreased | 
CCOC(=O)C1=C(C)NC(C)=C(C(=O)OCC)C1c1ccccc1Br [Example 2-23, Diethyl 4-(2-bromophenyl)-1,4-dihydro-2,6-dimethylpyridine-3,5-dicarboxylate] |  | decreased | 
CC(C)Cc1ccc(C(C)C(=O)O)cc1 (centres unmarked) [ibuprofen] |  |  | β-amyloid deposits, astrocytosis, and dystrophic neurites [2]: reduction
COCCOC(=O)C1=C(C)NC(C)=C(C(=O)OCCOC)C1c1ccccc1Cl [Example 2-19] |  | decreased | 
CCOC(=O)C1=C(C)NC(C)=C(C(=O)OCC)C1c1ccc(Br)cc1F [Example 3-33] | decreased |  | 
CC1=C(C(=O)OC(C)(C)C)C(c2ccccc2[N+](=O)[O-])C(C(=O)OC(C)(C)C)=C(C)N1 [Example 2-33, Di-tert-butyl 1,4-dihydro-2,6-dimethyl-4-(2-nitrophenyl)pyridine-3,5-dicarboxylate] |  | decreased | 
COc1ccc2cc1Oc1ccc(cc1)C[C@H]1c3cc(c(OC)cc3CCN1C)Oc1c(OC)c(OC)cc3c1[C@H](C2)N(C)CC3 [tetrandine, tetrandrine] |  |  | concentration of Aβ1-40 compared to controls ([3]; 5 μM (FIG. 4)): significantly decreased; concentration of total β-amyloid compared to controls ([3]; 5 μM (FIG. 4)): significantly decreased; concentration of Aβ1-40 compared to controls ([3]; 10 μM (FIG. 4)): significantly decreased; concentration of total β-amyloid compared to controls ([3]; 10 μM (FIG. 4)): significantly decreased; concentration of Aβ1-40 compared to controls ([3]; 20 μM (FIG. 4)): significantly decreased; concentration of total β-amyloid compared to controls ([3]; 20 μM (FIG. 4)): significantly decreased; concentration of Aβ1-40 compared to controls ([3]; 30 μM (FIG. 4)): significantly decreased; concentration of total β-amyloid compared to controls ([3]; 30 μM (FIG. 4)): significantly decreased
Clc1ccc(C(c2ccc(Cl)cc2)[n+]2ccn(CC(OCc3ccc(Cl)cc3Cl)c3ccc(Cl)cc3Cl)c2)cc1.[Cl-] (centres unmarked) [Example R24571, 1-[bis(p-chlorophenyl)methyl]-3-[2-(2,4-di-chloro-p-(2,4-dichlorobenzyl-oxy)phenethyl)]-imidazolium chloride] |  |  | concentration of Aβ1-40 compared to controls ([3]; 5 μM (FIG. 4)): significantly decreased; concentration of total β-amyloid compared to controls ([3]; 5 μM (FIG. 4)): significantly decreased
CCOC(=O)C1=C(C)NC(C)=C(C(=O)OCC)C1c1cc(Br)ccc1F [Example 3-41, Diethyl 4-(5-bromo-2-fluorophenyl)-1,4-dihydro-2,6-dimethylpyridine-3,5-dicarboxylate] | decreased |  | 
Clc1ccccc1C(c1ccccc1)(c1ccccc1)n1ccnc1 [clotrimazole] |  |  | concentration of Aβ1-40 compared to controls ([3]; 20 μM (FIG. 4)): significantly decreased; concentration of total β-amyloid compared to controls ([3]; 20 μM (FIG. 4)): significantly decreased
CC1=C(C(=O)OC(C)(C)C)C(c2ccc(Br)cc2F)C(C(=O)OC(C)(C)C)=C(C)N1 [Example 3-34, Di-tert-butyl 4-(4-bromo-2-fluorophenyl)-1,4-dihydro-2,6-dimethylpyridine-3,5-dicarboxylate] | decreased |  | 
CCOC(=O)C1=C(C)NC(C)=C(C(=O)OCC)C1c1ccccc1[N+](=O)[O-] [Example 2-29, Diethyl 1,4-dihydro-2,6-dimethyl-4-(2-nitrophenyl)pyridine-3,5-dicarboxylate] |  | decreased | 
COCCOC(=O)C1=C(C)NC(C)=C(C(=O)OCCOC)C1c1ccc(Br)cc1 [Example 3-38, Bis(2-methoxyethyl) 4-(4-bromophenyl)-1,4-dihydro-2,6-dimethylpyridine-3,5-dicarboxylate] | decreased |  | 
